Results on one molecule are retold here after patent US8003655B2, “Substituted sulphoximines as TIE2 inhibitors and salts thereof, pharmaceutical compositions comprising same, methods of preparing same and uses of same” (Bayer Schering Pharma AG, priority 2006, dated 2011).

Where only a bound is given, the exact number is not on record here.

What all share (format): biochemical
One assay has as its target T1, Tie2 (Homo sapiens, UniProt Q02763).
T1 construct: A recombinant fusion protein of GST and the intracellular domains of Tie2; GST; made in house; host or cells: insect cells (Hi-5)
The assay is described as follows: Tie2-Kinase HTRF-Assay without kinase preactivation (assay 2). Conditions: 10 μM ATP, pIC50 = −log IC50 in molar concentration, read-out: Tie 2 activity (assay 2). The source says: Tie2-inhibitory activity of compounds of the present invention was quantified employing two Tie2 HTRF assay as described in the following paragraphs.
A recombinant fusion protein of GST and the intracellular domains of Tie2, expressed in insect cells (Hi-5) and purified by Glutathion-Sepharose affinity chromatography was used as kinase. Alternatively, commercially available GST-Tie2-fusion protein (Upstate Biotechnology, Dundee, Scotland) can be used as substrate for the kinase reaction the biotinylated peptide biotin-Ahx-EPKDDAYPLYSDFG (C-terminus in amid form) was used which can be purchased e.g. from the company Biosynthan GmbH (Berlin-Buch, Germany). Detection of phosphorylated product is achieved specifically by a trimeric detection complex consisting of the phosphorylated substrate, streptavidin-XLent (SA-XLent) which binds to biotin, and Europium Cryptate-labeled anti-phosphotyrosine antibody PT66 which binds to phosphorylated tyrosine.
Tie2 (3.5 ng/measurement point) was incubated for 60 min at 22° C. in the presence of 10 μM adenosine-tri-phosphate (ATP) and 1 μM substrate peptide (biotin-Ahx-EPKDDAYPLYSDFG-NH2) with different concentrations of test compounds (0 μM and concentrations in the range 0.001-20 μM) in 5 μl assay buffer [50 mM Hepes/NaOH pH 7, 10 mM MgCl2, 0.5 mM MnCl2, 1.0 mM dithiothreitol, 0.01% NP40, protease inhibitor mixture (“Complete w/o EDTA” from Roche, 1 tablet per 2.5 ml), 1% (v/v) dimethylsulfoxide]. The reaction was stopped by the addition of 5 μl of an aqueous buffer (25 mM Hepes/NaOH pH 7.5, 0.28% (w/v) bovine serum albumin) containing EDTA (90 mM) and the HTRF (Homogeneous Time Resolved Fluorescence) detection reagents streptavidine-XLent (0.2 μM, from Cis Biointernational, Marcoule, France) and PT66-Eu-Chelate (0.3 ng/μl; a europium-chelate labelled anti-phospho-tyrosine antibody from Perkin Elmer).
(§1) The resulting mixture was incubated 1 h at 22° C. to allow the binding of the biotinylated phosphorylated peptide to the streptavidine-XLent and the PT66-Eu-Chelate. Subsequently the amount of phosphorylated substrate peptide was evaluated by measurement of the resonance energy transfer from the PT66-Eu-Chelate to the streptavidine-XLent. Therefore, the fluorescence emissions at 620 nm and 665 nm after excitation at 350 nm was measured in a HTRF reader, e.g. a Rubystar (BMG Labtechnologies, Offenburg, Germany) or a Viewlux (Perkin-Elmer). The ratio of the emissions at 665 nm and at […] was taken as the measure for the amount of phosphorylated substrate peptide. The data were normalised (enzyme reaction without inhibitor=0% inhibition, all other assay components but no enzyme=100% inhibition) and IC50 values were calculated by a 4 parameter fit using an inhouse software.

For a further assay, the target named is T2, preactivated Tie2 (Homo sapiens, UniProt Q02763).
T2 construct: A recombinant fusion protein of GST and the intracellular domains of Tie2; GST; made in house; host or cells: insect cells (Hi-5)
T2 sequence (Q02763 770-1124 limits assumed): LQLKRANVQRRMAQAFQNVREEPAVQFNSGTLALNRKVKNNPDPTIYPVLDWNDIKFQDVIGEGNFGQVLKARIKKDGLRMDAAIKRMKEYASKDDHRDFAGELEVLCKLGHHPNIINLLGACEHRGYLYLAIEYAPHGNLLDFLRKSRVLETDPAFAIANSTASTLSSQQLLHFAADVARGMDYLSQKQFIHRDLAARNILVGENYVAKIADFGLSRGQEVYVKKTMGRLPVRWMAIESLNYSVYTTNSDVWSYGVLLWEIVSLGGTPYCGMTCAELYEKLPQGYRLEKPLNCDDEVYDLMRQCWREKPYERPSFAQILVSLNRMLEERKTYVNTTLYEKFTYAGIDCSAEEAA
Description: Tie2-Kinase HTRF-Assay with kinase preactivation (assay 3). Conditions: 10 μM ATP, pIC50 = −log IC50 in molar concentration, read-out: Tie 2 activity (assay 3). How it is done: Assay 3: Tie2-Kinase HTRF-Assay with Kinase Preactivation
A recombinant fusion protein of GST and the intracellular domains of Tie2, expressed in insect cells (Hi-5) and purified by Glutathion-Sepharose affinity chromatography was used as kinase. As substrate for the kinase reaction the biotinylated peptide biotin-Ahx-EPKDDAYPLYSDFG (C-terminus in amid form) was used which can be purchased e.g. from the company Biosynthan GmbH (Berlin-Buch, Germany).
For activation, Tie2 was incubated at a conc. 12.5 ng/μl of for 20 min at 22° C. in the presence of 250 μM adenosine-tri-phosphate (ATP) in assay buffer [50 mM Hepes/NaOH pH 7, 10 mM MgCl2, 0.5 mM MnCl2, 1.0 mM dithiothreitol, 0.01% NP40, protease inhibitor mixture (“Complete w/o EDTA” from Roche, 1 tablet per 2.5 ml)].
For the subsequent kinase reaction, the preactivated Tie2 (0.5 ng/measurement point) was incubated for 20 min at 22° C. in the presence of 10 μM adenosine-tri-phosphate (ATP) and 1 μM substrate peptide (biotin-Ahx-EPKDDAYPLYSDFG-NH2) with different concentrations of test compounds (0 μM and concentrations in the range 0.001-20 μM) in 5 μl assay buffer [50 mM Hepes/NaOH pH 7, 10 mM MgCl2, 0.5 mM MnCl2, 0.1 mM sodium ortho-vanadate, 1.0 mM dithiothreitol, 0.01% NP40, protease inhibitor mixture (“Complete w/o EDTA” from Roche, 1 tablet per 2.5 ml), 1% (v/v) dimethylsulfoxide]. The reaction was stopped by the addition of 5 μl of an aqueous buffer (25 mM Hepes/NaOH pH 7.5, 0.28% (w/v) bovine serum albumin) containing EDTA (90 mM) and the HTRF (Homogeneous Time Resolved Fluorescence) detection reagents streptavidine-XLent (0.2 μM, from Cis Biointernational, Marcoule, France) and PT66-Eu-Chelate (0.3 ng/μl; a europium-chelate labelled anti-phospho-tyrosine antibody from Perkin Elmer).
as §1
On the technique in general: TR-FRET usually uses a lanthanide donor and a delayed reading to cut background.

Another assay addresses T3, CDK2/CycE (Homo sapiens, UniProt P24941).
T3 construct: GST; purchased ProQinase GmbH (Freiburg, Germany); host or cells: insect cells (Sf9)
Description: CDK2 HTRF Assay (assay 4). Conditions: 10 μM ATP, pIC50 = −log IC50 in molar concentration. The text has this: CDK2/CycE-inhibitory activity of compounds of the present invention was quantified employing the CDK2/CycE HTRF assay as described in the following paragraphs.
Recombinant fusion proteins of GST and human CDK2 and of GST and human CycE, expressed in insect cells (Sf9) and purified by Glutathion-Sepharose affinity chromatography, were purchase from ProQinase GmbH (Freiburg, Germany). As substrate for the kinase reaction biotinylated peptide biotin-Ttds-YISPLKSPYKISEG (C-terminus in amid form) was used which can be purchased e.g. form the company JERINI peptide technologies (Berlin, Germany).
CDK2/CycE was incubated for 60 min at 22° C. in the presence of different concentrations of test compounds in 5 μl assay buffer [50 mM Tris/HCl pH 8.0, 10 mM MgCl2, 1.0 mM dithiothreitol, 0.1 mM sodium ortho-vanadate, 10 μM adenosine-tri-phosphate (ATP), 0.75 μM substrate, 0.01% (v/v) Nonidet-P40 (Sigma), 1% (v/v) dimethylsulfoxide]. The concentration of CDK2/CycE was adjusted depending of the activity of the enzyme lot and was chosen appropriate to have the assay in the linear range, typical concentrations were in the range of 1 ng/ml. The reaction was stopped by the addition of 5 μl of a solution of HTRF detection reagents (0.2 μM streptavidine-XLent and 3.4 nM Phospho-(Ser) CDKs Substrate Antibody [product #2324B, Cell Signalling Technology, Danvers, Mass., USA} and 4 nM Prot-A-EuK [Protein A labeled with Europium Cryptate from Cis biointernational, France, product no. 61PRAKLB]) in an aqueous EDTA-solution (100 mM EDTA, 800 mM KF, 0.2% (w/v) bovine serum albumin in 100 mM HEPES/NaOH pH 7.0).

T1 sequence (Q02763 770-1124 limits assumed): as above

Consider `C[C@H](CO)Nc1nc(Nc2cccc(S(C)(=N)=O)c2)ncc1-c1ccc(NC(=O)C2(c3ccccc3)CC2)cc1` (mixture of isomers) [Example 33, N-{4-[4-{[(R)-2-Hydroxy-1-methylethyl]amino}-2-({3-[(RS)-S-methylsulfonimidoyl]phenyl}amino)pyrimidin-5-yl]phenyl}-1-phenylcyclopropanecarboxamide], for which the IC50 is below 100 nM on Tie2, 100 to 1000 nM at preactivated Tie2 and above 10000 nM against CDK2/CycE.
